The text below walks through data of US20240383901A1, “SUBSTITUTED PYRROLO[2,3-D]PYRIMIDINES, THEIR PREPARATION AND THEIR THERAPEUTIC APPLICATION” (SANOFI, priority 2021, published 2024).

A value given as a limit tells only on which side of the number the result lay.

LRRK2, sequence (Q5S007 whole entry): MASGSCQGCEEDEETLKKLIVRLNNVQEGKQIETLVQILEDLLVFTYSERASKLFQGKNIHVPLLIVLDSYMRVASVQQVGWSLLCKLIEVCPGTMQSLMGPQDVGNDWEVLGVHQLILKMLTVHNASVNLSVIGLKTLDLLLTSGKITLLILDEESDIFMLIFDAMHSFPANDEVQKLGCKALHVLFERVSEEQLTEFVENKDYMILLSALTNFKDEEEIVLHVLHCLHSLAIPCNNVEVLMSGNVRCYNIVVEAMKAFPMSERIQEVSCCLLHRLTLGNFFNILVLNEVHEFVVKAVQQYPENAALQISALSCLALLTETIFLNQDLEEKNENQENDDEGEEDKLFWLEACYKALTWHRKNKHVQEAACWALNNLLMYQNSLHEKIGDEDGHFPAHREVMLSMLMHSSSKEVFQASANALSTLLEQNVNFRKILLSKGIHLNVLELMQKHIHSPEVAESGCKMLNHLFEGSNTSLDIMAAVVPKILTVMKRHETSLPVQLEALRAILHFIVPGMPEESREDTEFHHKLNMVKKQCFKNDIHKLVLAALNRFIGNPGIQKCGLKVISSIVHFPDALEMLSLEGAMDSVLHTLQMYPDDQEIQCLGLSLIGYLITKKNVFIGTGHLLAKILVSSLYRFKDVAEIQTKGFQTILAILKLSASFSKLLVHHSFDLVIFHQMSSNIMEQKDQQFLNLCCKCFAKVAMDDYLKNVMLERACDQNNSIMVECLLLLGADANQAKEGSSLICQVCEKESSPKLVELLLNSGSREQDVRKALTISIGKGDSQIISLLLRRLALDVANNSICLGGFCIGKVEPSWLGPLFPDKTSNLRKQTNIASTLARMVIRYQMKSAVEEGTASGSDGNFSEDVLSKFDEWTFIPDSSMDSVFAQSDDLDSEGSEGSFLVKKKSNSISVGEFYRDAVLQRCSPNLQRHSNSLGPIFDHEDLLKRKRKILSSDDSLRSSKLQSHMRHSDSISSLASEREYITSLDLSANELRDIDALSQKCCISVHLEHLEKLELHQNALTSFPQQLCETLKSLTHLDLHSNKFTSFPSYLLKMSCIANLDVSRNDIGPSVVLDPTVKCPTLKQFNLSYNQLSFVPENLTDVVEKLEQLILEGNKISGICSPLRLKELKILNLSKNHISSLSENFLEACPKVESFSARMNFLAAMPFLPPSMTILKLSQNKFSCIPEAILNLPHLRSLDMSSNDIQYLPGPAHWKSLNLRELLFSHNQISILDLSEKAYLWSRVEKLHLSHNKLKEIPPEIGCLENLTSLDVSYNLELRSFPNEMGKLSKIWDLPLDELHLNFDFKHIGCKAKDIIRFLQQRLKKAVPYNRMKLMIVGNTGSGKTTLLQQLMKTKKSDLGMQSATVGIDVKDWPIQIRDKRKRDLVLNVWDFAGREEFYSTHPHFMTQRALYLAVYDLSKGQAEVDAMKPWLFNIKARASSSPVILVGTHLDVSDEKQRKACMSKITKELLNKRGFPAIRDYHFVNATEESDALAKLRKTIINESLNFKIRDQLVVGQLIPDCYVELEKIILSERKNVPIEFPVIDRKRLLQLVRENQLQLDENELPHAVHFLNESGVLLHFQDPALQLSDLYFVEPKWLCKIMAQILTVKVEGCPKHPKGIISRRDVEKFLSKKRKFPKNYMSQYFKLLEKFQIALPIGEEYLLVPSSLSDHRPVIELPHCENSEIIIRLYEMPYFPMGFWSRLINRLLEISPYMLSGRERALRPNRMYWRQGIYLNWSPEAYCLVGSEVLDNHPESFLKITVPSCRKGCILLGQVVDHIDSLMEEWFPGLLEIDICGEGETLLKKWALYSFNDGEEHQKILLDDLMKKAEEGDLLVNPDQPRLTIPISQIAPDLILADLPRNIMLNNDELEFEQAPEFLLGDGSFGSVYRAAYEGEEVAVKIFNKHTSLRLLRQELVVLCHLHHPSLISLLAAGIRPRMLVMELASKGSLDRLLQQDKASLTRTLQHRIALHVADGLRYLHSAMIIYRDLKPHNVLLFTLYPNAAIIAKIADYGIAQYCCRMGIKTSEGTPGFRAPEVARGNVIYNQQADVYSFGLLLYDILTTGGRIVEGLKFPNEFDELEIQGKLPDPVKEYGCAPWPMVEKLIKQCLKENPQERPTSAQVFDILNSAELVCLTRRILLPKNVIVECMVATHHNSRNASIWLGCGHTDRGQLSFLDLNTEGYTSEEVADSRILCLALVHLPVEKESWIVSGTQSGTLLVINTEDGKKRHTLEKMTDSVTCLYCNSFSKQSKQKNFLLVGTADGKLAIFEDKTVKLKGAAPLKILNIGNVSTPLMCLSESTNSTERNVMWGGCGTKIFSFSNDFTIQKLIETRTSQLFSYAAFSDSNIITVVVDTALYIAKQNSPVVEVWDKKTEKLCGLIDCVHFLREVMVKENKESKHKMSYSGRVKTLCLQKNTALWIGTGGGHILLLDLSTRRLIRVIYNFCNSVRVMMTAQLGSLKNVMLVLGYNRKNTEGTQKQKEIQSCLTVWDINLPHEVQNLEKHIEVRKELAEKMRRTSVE

The experiment addresses LRRK2 (Homo sapiens, UniProt Q5S007). In words: LRRK2 WT assay (Assay B, radiometric 33P-ATP filter binding). The format is biochemical. The note with it: Assay B (values marked *). The protocol:
LRRK2(human) is incubated with 50 mM HEPES pH 8.0, 0.2 mM EDTA, 0.01% Brij-35, 1% (w/v) BSA, 5 mM DTT, 250 Mm […], 10 mM Magnesium acetate and [[…]]-ATP (specific activity and concentration as required).
The reaction is initiated by the addition of the Mg/ATP mix.
Consider `[2H]c1c(Nc2ncc3cc(C#N)n([C@H]4COC[C@@H]4C)c3n2)c(OC2COC2C)nn1C` (stereo partly drawn) [Example 97, 2-((1-methyl-3-((2-methyloxetan-3-yl)oxy)-1H-pyrazol-4-yl-5-d)amino)-7-((3R,4R)-4-methyltetrahydrofuran-3-yl)-7H-pyrrolo[2,3-d]pyrimidine-6-carbonitrile], for which the half-inhibitory concentration (IC50) (as a rule, the concentration at which inhibition is half-maximal) was 12 nM. For `CO[C@H]1COC[C@H]1n1c(C#N)cc2cnc(Nc3cn(C(C)C#N)nc3OC(C)C)nc21` (single isomer, unassigned) [Example 57] the value was 27 nM; for `CC(C)Oc1nn(C(C)C#N)cc1Nc1ncc2cc(C#N)n([C@@H]3COC[C@@H]3C)c2n1` (single isomer, unassigned) [Example 48, 2-((1-(1-cyanoethyl)-3-isopropoxy-1 H-pyrazol-4-yl)amino)-7-((cis)-4-methyltetrahydrofuran-3-yl)-7H-pyrrolo[2,3-d]pyrimidine-6-carbonitrile], 256 nM; for `[2H]c1c(Nc2ncc3cc(C#N)n([C@@H](C)COC)c3n2)c(OC2CC2)nn1COC` [Example 95, (S)-2-((3-cyclopropoxy-1-(methoxymethyl)-1H-pyrazol-4-yl-5-d)amino)-7-(1-methoxypropan-2-yl)-7H-pyrrolo[2,3-d]pyrimidine-6-carbonitrile], 16 nM. Take `C[C@@H]1COCC[C@H]1n1c(C#N)cc2cnc(Nc3cn(C)nc3OC3COC3)nc21` (single isomer, unassigned) [Example 84, 2-((1-methyl-3-(oxetan-3-yloxy)-1 H-pyrazol-4-yl)amino)-7-((trans)-3-methyltetrahydro-2H-pyran-4-yl)-7H-pyrrolo[2,3-d]pyrimidine-6-carbonitrile]: the half-maximal inhibitory concentration (IC50) came out at 7 nM. Regarding `CO[C@H]1COC[C@H]1n1c(C#N)cc2cnc(Nc3cn(C(C)C#N)nc3OC3CC3)nc21` (stereo partly drawn) [Example 58, 2-((1-(1-Cyanoethyl)-3-cyclopropoxy-1H-pyrazol-4-yl)amino)-7-((3R,4R)-4-methoxytetrahydrofuran-3-yl)-7H-pyrrolo[2,3-d]pyrimidine-6-carbonitrile], the IC50 came out at 15 nM. To `C[C@@H]1COCC[C@H]1n1c(C#N)cc2cnc(Nc3cn(C)nc3OC3COC3)nc21` (single isomer, unassigned) [Example 83, 2-((1-methyl-3-(oxetan-3-yloxy)-1 H-pyrazol-4-yl)amino)-7-((trans)-3-methyltetrahydro-2H-pyran-4-yl)-7H-pyrrolo[2,3-d]pyrimidine-6-carbonitrile] belongs 134 nM; to `CO[C@H]1COC[C@H]1n1c(C#N)cc2cnc(Nc3cn(C)nc3OC3CC(F)(F)C3)nc21` [Example 65, 2-((3-(3,3-Difluorocyclobutoxy)-1-methyl-1H-pyrazol-4-yl)amino)-7-((3R,4R)-4-methoxytetrahydrofuran-3-yl)-7H-pyrrolo[2,3-d]pyrimidine-6-carbonitrile], 187 nM. To `CC[C@@H](C)Oc1nn(C)cc1Nc1ncc2cc(C#N)n([C@@H]3COC[C@@H]3OC)c2n1` [Example 66, 2-((3-((R)-sec-Butoxy)-1-methyl-1H-pyrazol-4-yl)amino)-7-((3R,4R)-4-methoxytetrahydrofuran-3-yl)-7H-pyrrolo[2,3-d]pyrimidine-6-carbonitrile] belongs 119 nM; to `CC(C)Oc1nn(C(C)C#N)cc1Nc1ncc2cc(C#N)n([C@@H]3COC[C@@H]3C)c2n1` (single isomer, unassigned) [Example 49, 2-((1-(1-cyanoethyl)-3-isopropoxy-1 H-pyrazol-4-yl)amino)-7-((cis)-4-methyltetrahydrofuran-3-yl)-7H-pyrrolo[2,3-d]pyrimidine-6-carbonitrile], 274 nM; to `CO[C@H]1COC[C@H]1n1c(C#N)cc2cnc(Nc3ccnc4c3OC(C)(C)CC4)nc21` [Example 68, 2-((2,2-Dimethyl-3,4-dihydro-2H-pyrano[3,2-b]pyridin-8-yl)amino)-7-((3R,4R)-4-methoxytetrahydrofuran-3-yl)-7H-pyrrolo[2,3-d]pyrimidine-6-carbonitrile], above 1000 nM. `CO[C@H]1COC[C@H]1n1c(C#N)cc2cnc(Nc3cn(C(C)C)nc3OC3CC3)nc21` [Example 61, 2-((3-Cyclopropoxy-1-isopropyl-1H-pyrazol-4-yl)amino)-7-((3R,4R)-4-methoxytetrahydrofuran-3-yl)-7H-pyrrolo[2,3-d]pyrimidine-6-carbonitrile] yielded an IC50 of 133 nM.

`CC(C)Oc1nn(C)cc1Nc1ncc2cc(C#N)n(C3COC3)c2n1` [Example 75, 2-((3-Isopropoxy-1-methyl-1 H-pyrazol-4-yl)amino)-7-(oxetan-3-yl)-7H-pyrrolo[2,3-d]pyrimidine-6-carbonitrile] registered an IC50 of 44 nM. To `Cn1cc(Nc2ncc3cc(C#N)n(C4CCCOC4)c3n2)c(OC2COC2)n1` (single isomer, unassigned) [Example 81, 2-((1-methyl-3-(oxetan-3-yloxy)-1 H-pyrazol-4-yl)amino)-7-(tetrahydro-2H-pyran-3-yl)-7H-pyrrolo[2,3-d]pyrimidine-6-carbonitrile] belongs 183 nM; to `CC[C@H]1COC[C@H]1n1c(C#N)cc2cnc(Nc3cn(C)nc3OC(C)C)nc21` (racemic) [Example 72, 7-((cis)-4-ethyltetrahydrofuran-3-yl)-2-((3-isopropoxy-1-methyl-1 H-pyrazol-4-yl)amino)-7H-pyrrolo[2,3-d]pyrimidine-6-carbonitrile], 83 nM; to `CO[C@H]1COC[C@H]1n1c(C#N)cc2cnc(Nc3ccnc4c3O[C@H](C)CCO4)nc21` [Example 69, 7-((3R,4R)-4-Methoxytetrahydrofuran-3-yl)-2-(((R)-2-methyl-3,4-dihydro-2H-[1,4]dioxepino[2,3-b]pyridin-9-yl)amino)-7H-pyrrolo[2,3-d]pyrimidine-6-carbonitrile], 597 nM.

As for `CC[C@H](C)Oc1nn(C)cc1Nc1ncc2cc(C#N)n([C@@H]3COC[C@@H]3OC)c2n1` [Example 67, 2-((3-((S)-sec-Butoxy)-1-methyl-1H-pyrazol-4-yl)amino)-7-((3R,4R)-4-methoxytetrahydrofuran-3-yl)-7H-pyrrolo[2,3-d]pyrimidine-6-carbonitrile], the IC50 was determined as 297 nM. For `CO[C@H]1COC[C@H]1n1c(C#N)cc2cnc(Nc3cn(C4COC4)nc3OC(C)C)nc21` [Example 63, 2-((3-Isopropoxy-1-(oxetan-3-yl)-1H-pyrazol-4-yl)amino)-7-((3R,4R)-4-methoxytetrahydrofuran-3-yl)-7H-pyrrolo[2,3-d]pyrimidine-6-carbonitrile] the value was 201 nM.
